Experimental data as given in ChEMBL document CHEMBL5032530, “Discovery of Benzocyclic Sulfone Derivatives as Potent CXCR2 Antagonists for Cancer Immunotherapy” (J Med Chem, 2021).
pIC50: −log10 of the molar value. Activity calls are given as the source filed them. No cut-off for these calls is given here.

How the values were obtained:
[1] = target: C-C chemokine receptor type 8 (Homo sapiens) (UniProt P51685); experiment: Agonist activity against CCR8 (unknown origin) assessed as induction of beta-arrestin 2 recruitment at 10 microM by beta arrestin assay relative to control; assay type: functional
Sequence of C-C chemokine receptor type 8 (Homo sapiens) (P51685 whole entry): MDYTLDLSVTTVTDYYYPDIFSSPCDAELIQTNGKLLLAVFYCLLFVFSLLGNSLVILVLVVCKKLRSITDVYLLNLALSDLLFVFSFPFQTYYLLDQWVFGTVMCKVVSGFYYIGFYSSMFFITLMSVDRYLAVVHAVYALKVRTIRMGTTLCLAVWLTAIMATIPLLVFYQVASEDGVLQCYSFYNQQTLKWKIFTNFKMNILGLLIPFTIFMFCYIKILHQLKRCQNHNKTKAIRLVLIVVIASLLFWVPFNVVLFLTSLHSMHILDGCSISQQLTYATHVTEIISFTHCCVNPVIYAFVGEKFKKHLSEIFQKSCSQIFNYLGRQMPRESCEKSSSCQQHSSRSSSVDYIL

[2] = target: C-C chemokine receptor type 10 (Homo sapiens) (UniProt P46092); experiment: Antagonist activity against CCR10 (unknown origin) assessed as inhibition of beta-arrestin 2 recruitment at 10 microM by beta arrestin assay relative to control; assay type: functional; parameters: scale not given: the % may be the effect or the level left
Sequence of C-C chemokine receptor type 10 (Homo sapiens) (P46092 whole entry): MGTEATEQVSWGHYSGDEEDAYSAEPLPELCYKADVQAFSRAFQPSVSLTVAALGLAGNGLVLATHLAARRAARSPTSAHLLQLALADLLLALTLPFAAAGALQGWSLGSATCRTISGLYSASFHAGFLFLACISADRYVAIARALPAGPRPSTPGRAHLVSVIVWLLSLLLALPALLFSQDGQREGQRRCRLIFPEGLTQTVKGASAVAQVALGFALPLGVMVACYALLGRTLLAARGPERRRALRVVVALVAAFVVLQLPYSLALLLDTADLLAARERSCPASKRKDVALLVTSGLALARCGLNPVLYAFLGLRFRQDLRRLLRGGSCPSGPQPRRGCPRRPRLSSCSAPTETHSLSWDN

[3] = target: C-X-C chemokine receptor type 1 (Homo sapiens) (UniProt P25024); experiment: Agonist activity against CXCR1 (unknown origin) assessed as induction of beta-arrestin 2 recruitment at 10 microM by beta arrestin assay relative to control; assay type: functional
Sequence of C-X-C chemokine receptor type 1 (Homo sapiens) (P25024 whole entry): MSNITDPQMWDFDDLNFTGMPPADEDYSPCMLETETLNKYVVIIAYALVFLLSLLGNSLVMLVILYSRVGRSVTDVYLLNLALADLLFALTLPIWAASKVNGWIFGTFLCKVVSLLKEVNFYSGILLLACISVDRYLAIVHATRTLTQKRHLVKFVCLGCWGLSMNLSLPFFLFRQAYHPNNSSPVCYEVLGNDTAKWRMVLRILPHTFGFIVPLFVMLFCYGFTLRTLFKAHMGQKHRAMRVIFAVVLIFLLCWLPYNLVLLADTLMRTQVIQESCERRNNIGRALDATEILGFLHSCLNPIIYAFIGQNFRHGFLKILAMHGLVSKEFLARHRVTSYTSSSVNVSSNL

[4] = target: C-X-C chemokine receptor type 2 (Homo sapiens) (UniProt P25025); experiment: Agonist activity against CXCR2 (unknown origin) assessed as induction of beta-arrestin 2 recruitment at 10 microM by beta arrestin assay relative to control; assay type: functional
Sequence of C-X-C chemokine receptor type 2 (Homo sapiens) (P25025 whole entry): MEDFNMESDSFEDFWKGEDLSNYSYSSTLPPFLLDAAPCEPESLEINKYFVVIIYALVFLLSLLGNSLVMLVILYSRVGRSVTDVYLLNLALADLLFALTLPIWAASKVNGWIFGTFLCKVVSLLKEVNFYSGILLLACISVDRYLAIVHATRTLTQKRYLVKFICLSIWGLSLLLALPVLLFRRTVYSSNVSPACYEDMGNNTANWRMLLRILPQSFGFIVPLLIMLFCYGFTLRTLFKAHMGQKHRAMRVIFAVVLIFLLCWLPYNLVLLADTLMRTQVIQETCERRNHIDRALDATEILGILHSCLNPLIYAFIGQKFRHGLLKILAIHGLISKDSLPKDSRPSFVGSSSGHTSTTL

[5] = system: Panc02; experiment: Antitumour activity against mouse Panc02 cells xenografted in mouse assessed as tumour growth inhibition at 10 mg/kg, po bid […]; assay type: functional; settings: read-out: TGI
[6] = system: Panc02; experiment: Antitumour activity against mouse Panc02 cells xenografted in mouse assessed as reduction in infiltration of granulocytic MDSCs into tumor tissue at 30 mg/kg, po bid measured after 15 days by immunohistochemical analysis; assay type: functional, organism-based; settings: time 15.0 day
[7] = target: C-C chemokine receptor type 6 (Homo sapiens) (UniProt P51684); experiment: Antagonist activity against CCR6 (unknown origin) assessed as inhibition of beta-arrestin 2 recruitment at 10 microM by beta arrestin assay relative to control; assay type: functional; parameters: scale not given: the % may be the effect or the level left
Sequence of C-C chemokine receptor type 6 (Homo sapiens) (P51684 whole entry): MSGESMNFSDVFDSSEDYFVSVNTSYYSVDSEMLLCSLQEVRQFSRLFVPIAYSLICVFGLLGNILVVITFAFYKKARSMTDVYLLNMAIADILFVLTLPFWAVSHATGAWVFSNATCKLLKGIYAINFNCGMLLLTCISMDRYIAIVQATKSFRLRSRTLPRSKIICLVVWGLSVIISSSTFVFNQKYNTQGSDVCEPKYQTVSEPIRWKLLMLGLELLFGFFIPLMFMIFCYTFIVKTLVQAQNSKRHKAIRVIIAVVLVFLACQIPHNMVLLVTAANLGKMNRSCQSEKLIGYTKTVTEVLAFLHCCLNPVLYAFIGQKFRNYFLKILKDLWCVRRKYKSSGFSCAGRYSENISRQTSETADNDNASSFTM

[8] = target: C-C chemokine receptor type 8 (Homo sapiens) (UniProt P51685); experiment: Antagonist activity against CCR8 (unknown origin) assessed as inhibition of beta-arrestin 2 recruitment at 10 microM by beta arrestin assay relative to control; assay type: functional; parameters: scale not given: the % may be the effect or the level left
[9] = target: C-X-C chemokine receptor type 4 (Homo sapiens) (UniProt P61073); experiment: Agonist activity against CXCR4 (unknown origin) assessed as induction of beta-arrestin 2 recruitment at 10 microM by beta arrestin assay relative to control; assay type: functional
Sequence of C-X-C chemokine receptor type 4 (Homo sapiens) (P61073 whole entry): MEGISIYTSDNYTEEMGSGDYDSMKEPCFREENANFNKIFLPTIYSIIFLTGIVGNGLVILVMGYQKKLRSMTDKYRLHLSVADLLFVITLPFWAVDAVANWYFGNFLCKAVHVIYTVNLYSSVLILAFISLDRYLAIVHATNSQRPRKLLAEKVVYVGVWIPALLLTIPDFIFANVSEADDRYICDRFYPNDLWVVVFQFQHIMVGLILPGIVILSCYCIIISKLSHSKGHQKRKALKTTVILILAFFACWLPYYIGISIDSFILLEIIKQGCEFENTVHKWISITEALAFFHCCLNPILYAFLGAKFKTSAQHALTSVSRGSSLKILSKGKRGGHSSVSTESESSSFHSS

[10] = target: Atypical chemokine receptor 3 (Homo sapiens) (UniProt P25106); experiment: Agonist activity against CXCR7 (unknown origin) assessed as induction of beta-arrestin 2 recruitment at 10 microM by beta arrestin assay relative to control; assay type: functional
Sequence of Atypical chemokine receptor 3 (Homo sapiens) (P25106 whole entry): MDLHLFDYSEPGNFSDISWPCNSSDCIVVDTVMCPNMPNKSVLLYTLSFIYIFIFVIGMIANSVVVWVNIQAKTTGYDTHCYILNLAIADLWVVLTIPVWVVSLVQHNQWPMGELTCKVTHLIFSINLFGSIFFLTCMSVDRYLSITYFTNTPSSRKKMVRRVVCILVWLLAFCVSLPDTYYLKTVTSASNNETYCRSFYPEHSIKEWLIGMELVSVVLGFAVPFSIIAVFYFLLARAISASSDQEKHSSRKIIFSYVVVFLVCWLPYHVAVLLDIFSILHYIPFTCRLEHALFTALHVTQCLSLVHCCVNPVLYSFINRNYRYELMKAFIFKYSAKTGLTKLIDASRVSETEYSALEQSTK

[11] = system: Mus musculus; experiment: Effect on granulocytic MDSCs level in mouse xenografted with […] cells at 10 to 30 mg/kg, po bid measured after 15 days by immunohistochemical analysis; assay type: ADME, organism-based; settings: in vivo, 360 h, dose 10-30 mg/kg, time 15 day
[12] = Tmax in ICR mouse at 3 mg/kg, iv measured upto 48 hrs; assay type: ADME, organism-based; settings: in vivo
[13] = system: SW1990; experiment: Cytotoxicity against human SW1990 cells assessed as reduction in cell viability measured after 72 hrs by CCK8 assay; assay type: cell-based; settings: SW1990, 72 h
[14] = system: Panc02; experiment: Antitumour activity against mouse Panc02 cells xenografted in mouse assessed as change in CD45 expressing immune cells infiltration into tumor tissue at 30 mg/kg, po bid measured after 15 days by flow cytometry analysis (reference value: 2.3%); assay type: functional; settings: time 15 day
[15] = target: C-X-C chemokine receptor type 6 (Homo sapiens) (UniProt O00574); experiment: Agonist activity against CXCR6 (unknown origin) assessed as induction of beta-arrestin 2 recruitment at 10 microM by beta arrestin assay relative to control; assay type: functional
Sequence of C-X-C chemokine receptor type 6 (Homo sapiens) (O00574 whole entry, looked up): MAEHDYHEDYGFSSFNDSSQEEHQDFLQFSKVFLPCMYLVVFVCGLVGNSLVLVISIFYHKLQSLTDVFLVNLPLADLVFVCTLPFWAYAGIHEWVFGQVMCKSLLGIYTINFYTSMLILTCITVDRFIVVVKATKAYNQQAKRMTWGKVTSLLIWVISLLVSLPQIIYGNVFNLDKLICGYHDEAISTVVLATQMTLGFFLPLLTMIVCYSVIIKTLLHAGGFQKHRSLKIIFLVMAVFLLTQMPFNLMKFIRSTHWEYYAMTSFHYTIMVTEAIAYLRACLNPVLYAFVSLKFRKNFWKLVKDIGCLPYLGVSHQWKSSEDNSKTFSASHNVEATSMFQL

[16] = target: C-X-C chemokine receptor type 4 (Homo sapiens) (UniProt P61073); experiment: Antagonist activity against CXCR4 (unknown origin) assessed as inhibition of beta-arrestin 2 recruitment at 10 microM by beta arrestin assay relative to control; assay type: functional; parameters: scale not given: the % may be the effect or the level left
[17] = target: C-C chemokine receptor type 3 (Homo sapiens) (UniProt P51677); experiment: Antagonist activity against CCR3 (unknown origin) assessed as inhibition of beta-arrestin 2 recruitment at 10 microM by beta arrestin assay relative to control; assay type: functional; parameters: scale not given: the % may be the effect or the level left
Sequence of C-C chemokine receptor type 3 (Homo sapiens) (P51677 whole entry): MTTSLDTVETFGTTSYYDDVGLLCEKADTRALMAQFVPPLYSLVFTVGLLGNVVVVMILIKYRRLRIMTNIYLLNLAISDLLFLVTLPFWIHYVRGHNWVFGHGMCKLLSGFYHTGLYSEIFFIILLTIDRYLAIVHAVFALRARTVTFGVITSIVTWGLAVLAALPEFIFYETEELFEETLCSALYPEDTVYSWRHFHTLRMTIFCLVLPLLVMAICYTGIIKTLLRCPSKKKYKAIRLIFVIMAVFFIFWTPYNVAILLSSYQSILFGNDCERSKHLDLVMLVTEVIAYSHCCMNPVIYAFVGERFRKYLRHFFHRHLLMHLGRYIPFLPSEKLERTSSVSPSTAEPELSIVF

[18] = target: Chemerin-like receptor 1 (Homo sapiens) (UniProt Q99788); experiment: Antagonist activity against CMKLR1 (unknown origin) assessed as inhibition of beta-arrestin 2 recruitment at 10 microM by beta arrestin assay relative to control; assay type: functional; parameters: scale not given: the % may be the effect or the level left
Sequence of Chemerin-like receptor 1 (Homo sapiens) (Q99788 whole entry): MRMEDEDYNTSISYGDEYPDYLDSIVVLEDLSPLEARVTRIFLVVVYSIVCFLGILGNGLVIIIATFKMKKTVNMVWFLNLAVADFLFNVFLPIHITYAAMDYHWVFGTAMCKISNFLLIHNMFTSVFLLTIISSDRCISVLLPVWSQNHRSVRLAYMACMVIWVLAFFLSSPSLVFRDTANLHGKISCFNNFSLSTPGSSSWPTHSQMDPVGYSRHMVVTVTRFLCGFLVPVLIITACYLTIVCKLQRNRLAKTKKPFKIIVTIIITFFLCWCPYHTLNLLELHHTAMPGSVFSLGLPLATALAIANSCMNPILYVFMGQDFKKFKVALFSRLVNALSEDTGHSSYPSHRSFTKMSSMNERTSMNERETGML

[19] = target: C-C chemokine receptor type 4 (Homo sapiens) (UniProt P51679); experiment: Agonist activity against CCR4 (unknown origin) assessed as induction of beta-arrestin 2 recruitment at 10 microM by beta arrestin assay relative to control; assay type: functional
Sequence of C-C chemokine receptor type 4 (Homo sapiens) (P51679 whole entry): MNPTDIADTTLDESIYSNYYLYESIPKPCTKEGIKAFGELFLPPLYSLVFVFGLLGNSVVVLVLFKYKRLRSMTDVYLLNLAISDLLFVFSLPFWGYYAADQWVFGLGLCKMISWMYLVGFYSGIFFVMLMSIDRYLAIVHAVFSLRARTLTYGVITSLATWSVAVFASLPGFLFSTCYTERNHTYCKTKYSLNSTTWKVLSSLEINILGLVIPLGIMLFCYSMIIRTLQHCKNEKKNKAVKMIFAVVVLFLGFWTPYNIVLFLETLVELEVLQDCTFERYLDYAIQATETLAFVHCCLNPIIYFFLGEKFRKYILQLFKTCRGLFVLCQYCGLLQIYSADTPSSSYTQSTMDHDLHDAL

[20] = system: Panc02; experiment: Antitumour activity against mouse Panc02 cells xenografted in mouse assessed as upregulation of infiltration of CD3+ T cell into tumor tissue treated po twice a day measured after 15 days by immunohistochemical analysis; assay type: functional, organism-based; settings: dose 10-30 mg/kg, time 15.0 day
[21] = system: Panc02; experiment: Antitumour activity against mouse Panc02 cells xenografted in mouse assessed as change in CD11b expressing immune cells infiltration into tumor tissue using LY6G antibody at 10 mg/kg, po bid measured after 15 days by flow cytometry analysis (reference value: 29.7%); assay type: functional; settings: time 15 day
[22] = system: Panc02; experiment: Cytotoxicity against mouse Panc02 cells assessed as reduction in cell viability measured after 72 hrs by CCK8 assay; assay type: cell-based; settings: panc02, 72 h
[23] = target: C-C chemokine receptor type 10 (Homo sapiens) (UniProt P46092); experiment: Agonist activity against CCR10 (unknown origin) assessed as induction of beta-arrestin 2 recruitment at 10 microM by beta arrestin assay relative to control; assay type: functional
[24] = target: C-C chemokine receptor type 5 (Homo sapiens) (UniProt P51681); experiment: Agonist activity against CCR5 (unknown origin) assessed as induction of beta-arrestin 2 recruitment at 10 microM by beta arrestin assay relative to control; assay type: functional
Sequence of C-C chemokine receptor type 5 (Homo sapiens) (P51681 whole entry, looked up): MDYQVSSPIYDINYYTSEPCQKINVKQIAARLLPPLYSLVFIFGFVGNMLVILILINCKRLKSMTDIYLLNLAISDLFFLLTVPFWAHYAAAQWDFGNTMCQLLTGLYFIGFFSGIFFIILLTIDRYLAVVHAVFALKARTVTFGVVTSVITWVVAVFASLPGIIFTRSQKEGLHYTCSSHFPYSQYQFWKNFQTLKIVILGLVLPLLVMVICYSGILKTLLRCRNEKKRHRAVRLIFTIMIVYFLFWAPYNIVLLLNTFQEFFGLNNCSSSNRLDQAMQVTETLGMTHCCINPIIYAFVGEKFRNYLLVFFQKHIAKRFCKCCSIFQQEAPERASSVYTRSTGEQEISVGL

[25] = target: C-X-C chemokine receptor type 6 (Homo sapiens) (UniProt O00574); experiment: Antagonist activity against CXCR6 (unknown origin) assessed as inhibition of beta-arrestin 2 recruitment at 10 microM by beta arrestin assay relative to control; assay type: functional; parameters: scale not given: the % may be the effect or the level left
[26] = system: MIA PaCa-2; experiment: Cytotoxicity against human MIA PaCa-2 cells assessed as reduction in cell viability measured after 72 hrs by CCK8 assay; assay type: cell-based; settings: MIA PaCa-2, 72 h
[27] = system: Panc02; experiment: Antitumour activity against mouse Panc02 cells xenografted in mouse assessed as change in CD11b expressing immune cells infiltration into tumor tissue using LY6G antibody at 30 mg/kg, po bid measured after 15 days by flow cytometry analysis (reference value: 29.7%); assay type: functional; settings: time 15 day
[28] = Oral bioavailability in ICR mouse at 30 mg/kg measured upto 48 hrs; assay type: ADME, organism-based; settings: in vivo
[29] = system: Panc02; experiment: Antitumour activity against mouse Panc02 cells xenografted in mouse assessed as change in CD45 expressing immune cells infiltration into tumor tissue at 10 mg/kg, po bid measured after 15 days by flow cytometry analysis (reference value: 2.3%); assay type: functional; settings: time 15 day
[30] = target: C-C chemokine receptor type 3 (Homo sapiens) (UniProt P51677); experiment: Agonist activity against CCR3 (unknown origin) assessed as induction of beta-arrestin 2 recruitment at 10 microM by beta arrestin assay relative to control; assay type: functional
[31] = Clearance in ICR mouse at 3 mg/kg, iv measured upto 48 hrs; assay type: ADME, organism-based; settings: in vivo
[32] = target: C-X-C chemokine receptor type 3 (Homo sapiens) (UniProt P49682); experiment: Antagonist activity against CXCR3 (unknown origin) assessed as inhibition of beta-arrestin 2 recruitment at 10 microM by beta arrestin assay relative to control; assay type: functional; parameters: scale not given: the % may be the effect or the level left
Sequence of C-X-C chemokine receptor type 3 (Homo sapiens) (P49682 whole entry): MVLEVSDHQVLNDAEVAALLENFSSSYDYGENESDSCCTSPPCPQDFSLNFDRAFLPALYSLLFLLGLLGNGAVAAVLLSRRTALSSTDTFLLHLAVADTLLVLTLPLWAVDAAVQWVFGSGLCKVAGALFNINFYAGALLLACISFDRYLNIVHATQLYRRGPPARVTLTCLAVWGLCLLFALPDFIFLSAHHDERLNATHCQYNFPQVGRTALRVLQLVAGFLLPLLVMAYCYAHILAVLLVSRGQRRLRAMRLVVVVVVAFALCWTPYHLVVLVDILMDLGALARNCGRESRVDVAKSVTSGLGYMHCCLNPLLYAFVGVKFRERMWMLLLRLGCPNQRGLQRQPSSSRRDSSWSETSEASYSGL

[33] = AUC (0 to infinity) in ICR mouse at 3 mg/kg, iv measured upto 48 hrs; assay type: ADME, organism-based; parameters: route intravenous, dose 3 mg/kg, time <=48; settings: in vivo
[34] = AUC (0 to t) in ICR mouse at 30 mg/kg, po measured upto 48 hrs; assay type: ADME, organism-based; parameters: route oral, dose 30 mg/kg, time <=48; settings: in vivo

Activity [1]: < 10% | Activity [2]: < 10% | Activity [3]: < 10% | Activity [4]: < 10% | Activity [7]: < 10% | Activity [8]: < 10% | Activity [9]: < 10% | Activity [10]: < 10% | Tmax [12]: 1.8 min | Activity [15]: < 10% | Activity [16]: 12% | Activity [17]: 13% | Activity [18]: < 10% | Activity [19]: < 10% | Activity [23]: < 10% | Activity [24]: < 10% | Activity [25]: 17% | bioavailability [28]: 6.1% | Activity [30]: < 10% | clearance [31]: 137 mL/min/kg | Activity [32]: < 10% | AUC(0-inf) [33]: 365 ng·h/mL | AUC(0-t) at 48 h [34]: 218 ng·h/mL
Compound: Cc1c(F)cccc1NC(=O)Nc1ccc2c(c1O)S(=O)(=O)CCC2
inhibition in vivo at 10 mg/kg [5]: 42.5% | Activity [6]: Active | Activity [11]: Non-Toxic | pIC50 [13]: < 5.00 | Activity [14]: 42.3% | Activity [20]: Dose-Dependent Effect | Activity [21]: 14% | Activity [22]: Non-Toxic | pIC50 [26]: < 5.00 | Activity [27]: 7.6% | Activity [29]: 30.3%
